In PMC7002704, “Inhibitory effect of Citrus flavonoids on the in vitro transport activity of human urate transporter 1 (URAT1/SLC22A12), a renal re-absorber of urate” (NPJ Science of Food, 2020):
Like-named read-outs stand apart in the source and are kept apart here.

Assays:
[1] = target: T1, urate transporter 1 (URAT1/SLC22A12) (Homo sapiens, UniProt Q96S37)
T1 sequence (Q96S37 1-553): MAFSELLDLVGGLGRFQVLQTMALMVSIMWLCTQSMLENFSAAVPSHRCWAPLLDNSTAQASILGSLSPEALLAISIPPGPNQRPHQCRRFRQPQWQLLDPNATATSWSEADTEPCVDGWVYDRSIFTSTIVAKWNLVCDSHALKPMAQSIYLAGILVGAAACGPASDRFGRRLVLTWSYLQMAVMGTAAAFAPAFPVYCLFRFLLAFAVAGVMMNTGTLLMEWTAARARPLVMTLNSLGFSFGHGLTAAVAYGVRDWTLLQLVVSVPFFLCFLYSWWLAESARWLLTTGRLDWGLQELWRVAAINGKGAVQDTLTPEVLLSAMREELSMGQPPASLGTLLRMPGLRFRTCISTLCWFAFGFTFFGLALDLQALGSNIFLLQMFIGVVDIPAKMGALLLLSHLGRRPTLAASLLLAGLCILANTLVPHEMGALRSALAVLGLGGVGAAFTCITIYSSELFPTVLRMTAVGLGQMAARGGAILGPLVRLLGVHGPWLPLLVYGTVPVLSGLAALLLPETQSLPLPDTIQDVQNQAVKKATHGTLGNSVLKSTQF

[2] = target: T1, urate transporter 1 (URAT1/SLC22A12); experiment: [[…]-14C]-urate uptake inhibition in URAT1-expressing […] cells; type: cell-based; set-up: EGFP-tagged URAT1 wild type (pEGFP-C1)

| SMILES | IC50 [2] | other results |
| --- | --- | --- |
| CCc1oc2ccccc2c1C(=O)c1cc(Br)c(O)c(Br)c1 [benzbromarone] |  | % inhibition at 10 μM [1]: 96 |
| COc1ccc([C@@H]2CC(=O)c3c(O)cc(O)cc3O2)cc1O [hesperetin] | 25.7 µM |  |
| O=C1C[C@@H](c2ccc(O)cc2)Oc2cc(O)cc(O)c21 [naringenin] | 16.1 µM |  |
| COc1ccc(-c2cc(=O)c3c(OC)c(OC)c(OC)c(OC)c3o2)cc1OC [nobiletin] |  | IC50 ([2]; read-out: IC50): 17.6 µM |
